Test results taken from article PMC11823630, “In vitro potentiation of tetracyclines in Pseudomonas aeruginosa by RW01, a new cyclic peptide” (Antimicrobial Agents and Chemotherapy, 2024).
Converted amounts (≈) assume the structure as drawn.

Experiments:
[1] = tested on: P. aeruginosa 125A; experiment: MIC, CLSI broth microdilution in BD Phoenix AST Broth; type: cell-based, Pseudomonas aeruginosa; settings: Pseudomonas aeruginosa; strain 125A; agent alone; 37°C, 18–22 h; three biological replicates
Protocol: (§1) MIC for RW01 was also tested.
(§2) FIC of RW01 (FICRW01)=MIC of RW01 in combination/MIC of RW01 alone,FIC of antibiotic (FICATB)=MIC of ATB in combination/MIC of ATB alone,FICI=FICRW01 +FICATB.
(§3) FICI was interpreted as follows: synergistic effect if FICI is ≤0.5; additive effect if 0.5 < FICI ≤ 1.0; indifferent effect if 1.0 < FICI ≤ 2.0; and finally, antagonistic effect if FICI is >2.0. The average FICI considering the antibiotic MIC (no growth in any of the replicates) at different concentrations of RW01 was calculated ([28]).

[2] = tested on: P. aeruginosa 125B; experiment: as above; type: cell-based, Pseudomonas aeruginosa; settings: Pseudomonas aeruginosa; strain 125B; agent alone; 37°C, 18–22 h; three biological replicates
Protocol: as §1, §2, §3

[3] = tested on: P. aeruginosa 41A; experiment: as above; type: cell-based, Pseudomonas aeruginosa; settings: Pseudomonas aeruginosa; strain 41A; agent alone; 37°C, 18–22 h; three biological replicates
Protocol: as §1, §2, §3

[4] = tested on: P. aeruginosa 41B; experiment: as above; type: cell-based, Pseudomonas aeruginosa; settings: Pseudomonas aeruginosa; strain 41B; agent alone; 37°C, 18–22 h; three biological replicates
Protocol: as §1, §2, §3

[5] = tested on: P. aeruginosa PAO1; experiment: as above; type: cell-based, Pseudomonas aeruginosa; settings: Pseudomonas aeruginosa, PAO1, strain PAO1; agent alone; 37°C, 18–22 h; three biological replicates; read-out: MIC
Protocol: as §1, §2, §3

[6] = tested on: P. aeruginosa PAOUW; experiment: as above; type: cell-based, Pseudomonas aeruginosa; settings: Pseudomonas aeruginosa, strain PAOUW; agent alone; 37°C, 18–22 h; three biological replicates; read-out: MIC
Protocol: as §1, §2, §3

[7] = tested on: P. aeruginosa PAOUW∆oprF; experiment: as above; type: cell-based, Pseudomonas aeruginosa; settings: Pseudomonas aeruginosa, strain PAOUWΔoprF; agent alone; 37°C, 18–22 h; three biological replicates
Protocol: as §1, §2, §3

[8] = tested on: P. aeruginosa PAOΔmexR; experiment: as above; type: cell-based, Pseudomonas aeruginosa; settings: Pseudomonas aeruginosa
Protocol: as §1, §2, §3

[9] = tested on: P. aeruginosa PAOΔmexZ; experiment: as above; type: cell-based, Pseudomonas aeruginosa; settings: Pseudomonas aeruginosa, strain PAOΔmexZ; agent alone; 37°C, 18–22 h; three biological replicates
Protocol: as §1, §2, §3

[10] = tested on: P. aeruginosa PAOΔoprM; experiment: as above; type: cell-based, Pseudomonas aeruginosa; settings: Pseudomonas aeruginosa
Protocol: as §1, §2, §3

[11] = tested on: P. aeruginosa PAO1, WT; experiment: MIC, Sensititre custom plate; type: cell-based; settings: Pseudomonas aeruginosa, PAO1, read-out: MIC, Sensititre
Protocol: (§4) Selection of resistant mutants was performed for minocycline with and without RW01 in three independent replicates for wild-type P. aeruginosa reference strain PAO1. Tubes containing Mueller-Hinton broth (MHB) were inoculated and incubated for 24 h at 37°C. Afterward, 1/100 dilution of each tube was incubated at 37°C in MHB to late-exponential growth phase, measured by spectrophotometry at OD600. […] A control plate without antibiotic was included as inoculum control. After overnight incubation, colony counting of each treatment was performed to analyze the generation of resistant population. The mutant prevention concentration (MPC) was defined as the lowest concentration of antibiotic yielding no growth of resistant mutants. Selected mutants were checked for susceptibility profiles by using a Sensititre custom plate (Thermo Fisher Scientific, Massachusetts, USA) for Gram-negative bacteria, following the manufacturer’s instructions.

[12] = tested on: PAO1 mutant MIN16_1, nalD(T43P); experiment: MIC, Sensititre custom plate; type: cell-based; settings: Pseudomonas aeruginosa, PAO1, read-out: MIC, Sensititre
Protocol: as §4

[13] = tested on: PAO1 mutant MIN16_2, nalC(aa9∆4), pilQ(nt46∆1); experiment: MIC, Sensititre custom plate; type: cell-based; settings: Pseudomonas aeruginosa, PAO1, read-out: MIC, Sensititre
Protocol: as §4

[14] = tested on: PAO1 mutant MIN16_3, nfxB(nt79∆14), pilB(N349K); experiment: MIC, Sensititre custom plate; type: cell-based; settings: Pseudomonas aeruginosa, PAO1, read-out: MIC, Sensititre
Protocol: as §4

[15] = tested on: PAO1 mutant MIN16_4, nalC(T50P), pilM(Q62X); experiment: MIC, Sensititre custom plate; type: cell-based; settings: Pseudomonas aeruginosa, PAO1, read-out: MIC, Sensititre
Protocol: as §4

[16] = tested on: PAO1 mutant MIN1_RW01_1, pmrB(Y98N); experiment: MIC, Sensititre custom plate; type: cell-based; settings: Pseudomonas aeruginosa, PAO1, read-out: MIC, Sensititre
Protocol: as §4

[17] = tested on: PAO1 mutant MIN1_RW01_2, mexR(G58E), pilB(G326D), hutC(Y181X); experiment: MIC, Sensititre custom plate; type: cell-based; settings: Pseudomonas aeruginosa, PAO1, read-out: MIC, Sensititre
Protocol: as §4

[18] = tested on: PAO1 mutant MIN1_RW01_3, pmrB(V215L); experiment: MIC, Sensititre custom plate; type: cell-based; settings: Pseudomonas aeruginosa, PAO1, read-out: MIC, Sensititre
Protocol: as §4

[19] = tested on: PAO1 mutant MIN2_RW01_1, pmrB(V215L); experiment: MIC, Sensititre custom plate; type: cell-based; settings: Pseudomonas aeruginosa, PAO1, read-out: MIC, Sensititre
Protocol: as §4

[20] = tested on: PAO1 mutant MIN2_RW01_2, pmrB(M292T); experiment: MIC, Sensititre custom plate; type: cell-based; settings: Pseudomonas aeruginosa, PAO1, read-out: MIC, Sensititre
Protocol: as §4

[21] = tested on: PAO1 mutant MIN2_RW01_3, parS(V152A); experiment: MIC, Sensititre custom plate; type: cell-based; settings: Pseudomonas aeruginosa, PAO1, read-out: MIC, Sensititre
Protocol: as §4

[22] = tested on: PAO1 mutant MIN2_RW01_4, pmrB(M292T); experiment: MIC, Sensititre custom plate; type: cell-based; settings: Pseudomonas aeruginosa, PAO1, read-out: MIC, Sensititre
Protocol: as §4

[23] = tested on: PAO1 mutant MIN32_1, mexR(R63H), pilB(N349K), PA0646(V316G); experiment: MIC, Sensititre custom plate; type: cell-based; settings: Pseudomonas aeruginosa, PAO1, read-out: MIC, Sensititre
Protocol: as §4

[24] = tested on: PAO1 mutant MIN4_RW01_1, pmrB(R429H); experiment: MIC, Sensititre custom plate; type: cell-based; settings: Pseudomonas aeruginosa, PAO1, read-out: MIC, Sensititre
Protocol: as §4

[25] = tested on: PAO1 mutant MIN4_RW01_3, pmrB(M292T); experiment: MIC, Sensititre custom plate; type: cell-based; settings: Pseudomonas aeruginosa, PAO1, read-out: MIC, Sensititre
Protocol: as §4

[26] = tested on: PAO1 mutant MIN4_RW01_4, pmrB(Y98N); experiment: MIC, Sensititre custom plate; type: cell-based; settings: Pseudomonas aeruginosa, PAO1, read-out: MIC, Sensititre
Protocol: as §4

[27] = tested on: PAO1 mutant MIN8_1, nalD(R3C), pilM(Q62X); experiment: MIC, Sensititre custom plate; type: cell-based; settings: Pseudomonas aeruginosa, PAO1, read-out: MIC, Sensititre
Protocol: as §4

[28] = tested on: PAO1 mutant MIN8_2, pilZ(nt18InsT); experiment: MIC, Sensititre custom plate; type: cell-based; settings: Pseudomonas aeruginosa, PAO1, read-out: MIC, Sensititre
Protocol: as §4

[29] = tested on: PAO1 mutant MIN8_3, pilZ(nt18InsT); experiment: MIC, Sensititre custom plate; type: cell-based; settings: Pseudomonas aeruginosa, PAO1, read-out: MIC, Sensititre
Protocol: as §4

[30] = tested on: PAO1 mutant MIN8_4, pilZ(nt18InsT); experiment: MIC, Sensititre custom plate; type: cell-based; settings: Pseudomonas aeruginosa, PAO1, read-out: MIC, Sensititre
Protocol: as §4

[31] = tested on: PAO1 mutant MIN1_RW01_4, pmrB(F124L); experiment: microbe, parasite or virus in culture; type: cell-based; settings: Pseudomonas aeruginosa, PAO1, read-out: MIC, Sensititre
Protocol: as §4

[32] = tested on: PAO1 mutant MIN4_RW01_2, pmrB(F124S); experiment: microbe, parasite or virus in culture; type: cell-based; settings: Pseudomonas aeruginosa, PAO1, read-out: MIC, Sensititre
Protocol: as §4

Row | SMILES | MIC [11] | MIC [12] | MIC [13] | MIC [14] | MIC [15] | MIC [16] | MIC [17] | MIC [18] | MIC [19] | MIC [20] | MIC [21] | MIC [22] | MIC [23] | MIC [24] | MIC [25] | MIC [26] | MIC [27] | MIC [28] | MIC [29] | MIC [30] | other results
1 | C[C@@H](O)[C@H]1C(=O)N2C(C(=O)O)=C(S[C@@H]3CN[C@H](C(=O)N(C)C)C3)[C@H](C)[C@H]12 [Meropenem, meropenem] | 1 to 2 µg/mL (≈ 2.61 to 5.22 µM) | 4 µg/mL (≈ 10.4 µM) | 2 µg/mL (≈ 5.22 µM) | ≤ 0.5 µg/mL | 2 µg/mL (≈ 5.22 µM) | 1 µg/mL (≈ 2.61 µM) | 4 µg/mL (≈ 10.4 µM) | 1 µg/mL (≈ 2.61 µM) | 1 µg/mL (≈ 2.61 µM) | 1 µg/mL (≈ 2.61 µM) | 2 to 4 µg/mL (≈ 5.22 to 10.4 µM) | 1 µg/mL (≈ 2.61 µM) | 4 µg/mL (≈ 10.4 µM) | 4 µg/mL (≈ 10.4 µM) | 2 µg/mL (≈ 5.22 µM) | 1 µg/mL (≈ 2.61 µM) | 2 µg/mL (≈ 5.22 µM) | 2 µg/mL (≈ 5.22 µM) | 2 µg/mL (≈ 5.22 µM) | 2 µg/mL (≈ 5.22 µM) | MIC [1]: 0.5 µg/mL; MIC [2]: 0.5 µg/mL; MIC [3]: 4 µg/mL; MIC [4]: 16 µg/mL; MIC [5]: 0.5 µg/mL; MIC [6]: 1 µg/mL; MIC [7]: 2 µg/mL; MIC [8]: 1 µg/mL; MIC [9]: 0.5 µg/mL; MIC [10]: 0.125 µg/mL; MIC [31]: 1 µg/mL (≈ 2.61 µM); MIC [32]: ≤ 0.5 µg/mL
2 | CC1(C)S[C@@H]2[C@H](NC(=O)[C@H](C(=O)O)c3ccsc3)C(=O)N2[C@H]1C(=O)O [TIC, ticarcillin] | 16 µg/mL (≈ 41.6 µM) | 64 µg/mL (≈ 166 µM) | 64 µg/mL (≈ 166 µM) | 16 µg/mL (≈ 41.6 µM) | 64 µg/mL (≈ 166 µM) | 16 µg/mL (≈ 41.6 µM) | 128 µg/mL (≈ 333 µM) | 16 µg/mL (≈ 41.6 µM) | 64 µg/mL (≈ 166 µM) | 32 µg/mL (≈ 83.2 µM) | 16 µg/mL (≈ 41.6 µM) | 32 µg/mL (≈ 83.2 µM) | 128 µg/mL (≈ 333 µM) | 128 µg/mL (≈ 333 µM) | 16 µg/mL (≈ 41.6 µM) | 16 µg/mL (≈ 41.6 µM) | 64 µg/mL (≈ 166 µM) | 64 µg/mL (≈ 166 µM) | 64 µg/mL (≈ 166 µM) | 64 µg/mL (≈ 166 µM) | MIC [31]: 16 µg/mL (≈ 41.6 µM); MIC [32]: 16 µg/mL (≈ 41.6 µM)
